Measurements from ChEMBL document CHEMBL1139325, “Discovery of targeting ligands for breast cancer cells using the one-bead one-compound combinatorial method” (J Med Chem, 2009).
Activity calls are given as the source filed them.

Key:
Type in all cases: cell-based
[1] = target: Integrin alpha-5 (Homo sapiens) (UniProt P08648); experiment: Binding affinity to integrin alpha5 in human K562 cells at 1 uM for 30 mins by flow cytometry
K562 [2] = experiment: Decrease in binding affinity to integrin alpha3 T162A mutant expressed in human K562 cells by flow cytometry
K562 [3] = experiment: Decrease in binding affinity to integrin alpha3 M164A mutant expressed in human K562 cells by flow cytometry
[4] = target: T1, Integrin alpha-9 (Homo sapiens) (UniProt Q13797); experiment: Binding affinity to integrin alpha9 expressed in human K562 cells at 1 uM for 30 mins by flow cytometry
T1 sequence (whole entry): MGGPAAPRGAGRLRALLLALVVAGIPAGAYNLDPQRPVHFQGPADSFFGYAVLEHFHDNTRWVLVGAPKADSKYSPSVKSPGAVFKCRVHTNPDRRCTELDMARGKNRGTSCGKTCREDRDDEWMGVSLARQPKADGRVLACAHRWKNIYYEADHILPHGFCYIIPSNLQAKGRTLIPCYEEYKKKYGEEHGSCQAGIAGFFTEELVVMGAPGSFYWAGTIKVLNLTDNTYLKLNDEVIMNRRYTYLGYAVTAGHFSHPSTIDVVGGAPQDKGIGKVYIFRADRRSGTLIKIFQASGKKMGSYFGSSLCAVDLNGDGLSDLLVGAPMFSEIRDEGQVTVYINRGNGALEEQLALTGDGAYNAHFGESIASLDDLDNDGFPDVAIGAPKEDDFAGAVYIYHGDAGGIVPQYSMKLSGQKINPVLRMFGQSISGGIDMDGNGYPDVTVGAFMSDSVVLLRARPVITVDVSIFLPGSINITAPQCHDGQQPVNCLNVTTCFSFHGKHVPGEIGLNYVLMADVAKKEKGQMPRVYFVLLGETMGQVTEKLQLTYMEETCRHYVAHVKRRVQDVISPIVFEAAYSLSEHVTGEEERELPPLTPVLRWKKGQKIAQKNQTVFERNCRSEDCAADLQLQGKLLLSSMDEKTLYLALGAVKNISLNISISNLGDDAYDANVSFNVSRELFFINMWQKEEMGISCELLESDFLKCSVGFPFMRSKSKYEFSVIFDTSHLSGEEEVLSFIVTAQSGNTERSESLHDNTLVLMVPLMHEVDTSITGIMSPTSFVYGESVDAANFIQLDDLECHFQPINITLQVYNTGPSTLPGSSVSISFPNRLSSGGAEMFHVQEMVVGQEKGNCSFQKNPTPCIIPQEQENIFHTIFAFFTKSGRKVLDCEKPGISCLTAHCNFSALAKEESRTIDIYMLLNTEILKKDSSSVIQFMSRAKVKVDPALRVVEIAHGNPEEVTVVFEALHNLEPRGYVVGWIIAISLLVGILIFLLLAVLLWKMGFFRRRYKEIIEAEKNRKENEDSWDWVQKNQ

K562 [5] = experiment: Decrease in binding affinity to integrin alpha3 G163A mutant expressed in human K562 cells by flow cytometry
K562 [6] = experiment: Decrease in binding affinity to integrin alpha3 Y186A mutant expressed in human K562 cells by flow cytometry
[7] = target: Integrin alpha-4 (Homo sapiens) (UniProt P13612); experiment: Binding affinity to integrin alpha4 expressed in human K562 cells at 1 uM for 30 mins by flow cytometry
Integrin alpha-4 (Homo sapiens), sequence (P13612 whole entry): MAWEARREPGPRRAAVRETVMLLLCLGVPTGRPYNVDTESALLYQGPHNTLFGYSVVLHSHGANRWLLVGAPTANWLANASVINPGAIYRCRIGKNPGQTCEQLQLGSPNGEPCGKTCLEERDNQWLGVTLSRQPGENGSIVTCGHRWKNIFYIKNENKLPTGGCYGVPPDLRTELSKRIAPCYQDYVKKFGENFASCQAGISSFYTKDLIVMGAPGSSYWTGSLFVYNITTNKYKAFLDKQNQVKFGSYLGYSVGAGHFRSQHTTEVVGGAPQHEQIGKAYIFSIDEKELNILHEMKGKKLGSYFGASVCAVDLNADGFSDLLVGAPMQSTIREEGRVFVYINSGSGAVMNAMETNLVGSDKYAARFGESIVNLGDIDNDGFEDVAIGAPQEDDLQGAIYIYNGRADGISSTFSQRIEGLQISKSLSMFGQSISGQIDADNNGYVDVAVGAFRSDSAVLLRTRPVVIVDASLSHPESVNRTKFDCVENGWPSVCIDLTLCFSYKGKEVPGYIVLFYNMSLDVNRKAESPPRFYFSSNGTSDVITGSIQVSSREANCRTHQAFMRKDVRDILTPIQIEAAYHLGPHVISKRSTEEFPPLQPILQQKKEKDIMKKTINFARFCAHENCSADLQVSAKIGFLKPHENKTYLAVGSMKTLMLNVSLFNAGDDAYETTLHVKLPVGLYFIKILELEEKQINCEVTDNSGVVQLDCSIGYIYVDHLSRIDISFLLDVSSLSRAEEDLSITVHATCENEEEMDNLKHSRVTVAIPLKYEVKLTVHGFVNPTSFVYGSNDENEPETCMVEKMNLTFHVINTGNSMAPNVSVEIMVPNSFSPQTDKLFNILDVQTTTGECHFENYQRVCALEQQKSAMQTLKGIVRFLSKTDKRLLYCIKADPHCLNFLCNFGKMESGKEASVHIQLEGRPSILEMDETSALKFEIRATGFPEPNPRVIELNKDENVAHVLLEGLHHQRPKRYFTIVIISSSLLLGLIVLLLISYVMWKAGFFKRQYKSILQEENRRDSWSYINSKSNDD

K562 [8] = experiment: Decrease in binding affinity to integrin alpha3 T162F mutant expressed in human K562 cells by flow cytometry
[9] = target: Integrin alpha-1 (Homo sapiens) (UniProt P56199); experiment: Binding affinity to integrin alpha1 expressed in human K562 cells at 1 uM for 30 mins by flow cytometry
Integrin alpha-1 (Homo sapiens), sequence (P56199 whole entry): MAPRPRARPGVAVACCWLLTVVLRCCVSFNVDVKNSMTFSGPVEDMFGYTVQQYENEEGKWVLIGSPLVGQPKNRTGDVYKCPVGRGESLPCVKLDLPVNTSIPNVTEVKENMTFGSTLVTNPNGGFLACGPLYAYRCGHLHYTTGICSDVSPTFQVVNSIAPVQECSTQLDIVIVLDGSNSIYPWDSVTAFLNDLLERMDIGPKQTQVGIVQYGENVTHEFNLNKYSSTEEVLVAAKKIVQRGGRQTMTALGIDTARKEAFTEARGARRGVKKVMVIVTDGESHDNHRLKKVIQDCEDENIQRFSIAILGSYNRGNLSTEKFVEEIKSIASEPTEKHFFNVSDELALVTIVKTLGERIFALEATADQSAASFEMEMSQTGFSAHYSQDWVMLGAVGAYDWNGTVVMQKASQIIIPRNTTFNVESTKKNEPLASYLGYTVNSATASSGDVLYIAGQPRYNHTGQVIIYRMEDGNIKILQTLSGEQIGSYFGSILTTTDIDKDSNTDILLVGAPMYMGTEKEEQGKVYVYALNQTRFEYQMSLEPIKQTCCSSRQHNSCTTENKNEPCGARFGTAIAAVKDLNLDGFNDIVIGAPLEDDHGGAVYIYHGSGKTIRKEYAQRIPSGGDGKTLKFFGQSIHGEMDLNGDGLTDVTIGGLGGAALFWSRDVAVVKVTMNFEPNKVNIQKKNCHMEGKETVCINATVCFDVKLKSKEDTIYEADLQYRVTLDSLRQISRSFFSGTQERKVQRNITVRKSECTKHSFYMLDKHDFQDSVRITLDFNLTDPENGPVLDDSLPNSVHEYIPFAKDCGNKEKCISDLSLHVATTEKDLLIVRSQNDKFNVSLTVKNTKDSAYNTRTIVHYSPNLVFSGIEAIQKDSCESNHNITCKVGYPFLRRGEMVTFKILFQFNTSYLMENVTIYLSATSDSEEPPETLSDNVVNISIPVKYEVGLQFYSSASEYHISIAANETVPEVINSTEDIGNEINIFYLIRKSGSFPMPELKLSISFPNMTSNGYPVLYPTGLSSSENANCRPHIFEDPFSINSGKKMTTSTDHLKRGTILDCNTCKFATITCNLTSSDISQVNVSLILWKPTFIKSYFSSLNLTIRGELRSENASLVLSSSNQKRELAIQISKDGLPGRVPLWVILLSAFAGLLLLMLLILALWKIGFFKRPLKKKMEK

[10] = target: Integrin alpha-2 (Homo sapiens) (UniProt P17301); experiment: Binding affinity to integrin alpha2 expressed in human K562 cells at 1 uM for 30 mins by flow cytometry
Integrin alpha-2 (Homo sapiens), sequence (P17301 whole entry): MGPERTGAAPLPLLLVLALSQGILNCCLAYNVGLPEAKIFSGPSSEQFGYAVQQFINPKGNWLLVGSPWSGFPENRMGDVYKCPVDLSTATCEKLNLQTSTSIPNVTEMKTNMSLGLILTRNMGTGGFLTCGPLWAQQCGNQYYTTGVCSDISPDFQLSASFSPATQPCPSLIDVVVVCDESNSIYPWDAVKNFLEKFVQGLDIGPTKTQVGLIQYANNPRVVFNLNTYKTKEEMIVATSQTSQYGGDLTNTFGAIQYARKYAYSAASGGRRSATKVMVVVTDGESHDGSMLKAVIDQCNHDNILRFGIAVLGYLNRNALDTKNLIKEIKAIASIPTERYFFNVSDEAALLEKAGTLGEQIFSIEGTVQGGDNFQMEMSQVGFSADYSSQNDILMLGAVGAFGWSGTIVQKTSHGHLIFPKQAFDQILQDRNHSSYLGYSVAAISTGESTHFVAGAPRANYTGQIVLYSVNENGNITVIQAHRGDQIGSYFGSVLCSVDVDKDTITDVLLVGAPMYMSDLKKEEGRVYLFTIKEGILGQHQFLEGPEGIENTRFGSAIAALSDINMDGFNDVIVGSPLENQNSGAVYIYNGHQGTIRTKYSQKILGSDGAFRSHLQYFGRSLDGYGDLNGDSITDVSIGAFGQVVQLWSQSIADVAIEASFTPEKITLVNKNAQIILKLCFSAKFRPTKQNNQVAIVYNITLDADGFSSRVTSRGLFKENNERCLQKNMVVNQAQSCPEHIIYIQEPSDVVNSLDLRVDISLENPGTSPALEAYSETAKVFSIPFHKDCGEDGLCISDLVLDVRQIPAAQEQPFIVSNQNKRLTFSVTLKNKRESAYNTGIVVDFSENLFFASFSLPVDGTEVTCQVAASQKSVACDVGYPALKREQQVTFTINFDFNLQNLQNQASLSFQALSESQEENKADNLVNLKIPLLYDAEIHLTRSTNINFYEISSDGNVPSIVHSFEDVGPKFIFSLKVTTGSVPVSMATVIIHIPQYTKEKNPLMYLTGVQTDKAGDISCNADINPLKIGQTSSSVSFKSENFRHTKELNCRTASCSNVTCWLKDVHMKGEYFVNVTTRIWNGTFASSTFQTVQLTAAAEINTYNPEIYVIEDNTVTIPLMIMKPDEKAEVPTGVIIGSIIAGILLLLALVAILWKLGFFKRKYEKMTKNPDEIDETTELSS

K562 [11] = experiment: Decrease in binding affinity to integrin alpha3 D15A mutant expressed in human K562 cells by flow cytometry
[12] = target: T2, Integrin alpha-6 (Homo sapiens) (UniProt P23229); experiment: Binding affinity to integrin alpha6 expressed in human K562 cells at 1 uM for 30 mins by flow cytometry
T2 sequence (whole entry): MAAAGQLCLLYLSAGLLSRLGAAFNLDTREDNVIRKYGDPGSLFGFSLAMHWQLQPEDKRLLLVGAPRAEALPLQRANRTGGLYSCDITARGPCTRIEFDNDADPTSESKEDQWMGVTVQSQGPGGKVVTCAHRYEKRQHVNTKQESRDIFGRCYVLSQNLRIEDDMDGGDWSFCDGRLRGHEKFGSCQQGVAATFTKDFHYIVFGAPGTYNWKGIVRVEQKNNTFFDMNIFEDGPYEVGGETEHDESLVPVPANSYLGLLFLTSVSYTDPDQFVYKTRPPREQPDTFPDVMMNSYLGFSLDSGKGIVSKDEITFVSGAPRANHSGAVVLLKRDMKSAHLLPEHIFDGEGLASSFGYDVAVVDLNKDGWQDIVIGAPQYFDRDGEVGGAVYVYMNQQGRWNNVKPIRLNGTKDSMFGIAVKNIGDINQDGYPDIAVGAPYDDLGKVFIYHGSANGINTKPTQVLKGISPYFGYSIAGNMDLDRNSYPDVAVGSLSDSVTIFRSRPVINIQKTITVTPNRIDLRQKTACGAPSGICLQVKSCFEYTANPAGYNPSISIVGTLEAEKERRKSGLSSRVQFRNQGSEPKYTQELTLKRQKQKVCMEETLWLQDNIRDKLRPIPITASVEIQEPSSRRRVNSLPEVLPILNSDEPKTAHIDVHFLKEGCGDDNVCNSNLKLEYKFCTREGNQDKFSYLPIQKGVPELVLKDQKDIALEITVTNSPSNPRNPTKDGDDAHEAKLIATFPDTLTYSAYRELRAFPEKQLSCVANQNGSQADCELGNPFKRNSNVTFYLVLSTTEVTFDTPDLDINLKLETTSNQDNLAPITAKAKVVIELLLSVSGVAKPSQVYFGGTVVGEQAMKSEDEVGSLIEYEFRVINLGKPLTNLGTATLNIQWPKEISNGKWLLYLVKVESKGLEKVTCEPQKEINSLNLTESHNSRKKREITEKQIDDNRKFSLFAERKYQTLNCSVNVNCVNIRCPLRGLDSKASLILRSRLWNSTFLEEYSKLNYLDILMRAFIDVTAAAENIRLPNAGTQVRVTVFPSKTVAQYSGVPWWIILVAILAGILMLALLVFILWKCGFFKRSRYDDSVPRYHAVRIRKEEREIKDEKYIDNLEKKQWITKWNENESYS

[13] = target: Integrin alpha-V/beta-3 (Homo sapiens) (UniProt P05106+P06756); experiment: Binding affinity to integrin alphaVbeta3 expressed in human K562 cells at 1 uM for 30 mins by flow cytometry

Measured: Activity

Integrin alpha-5 (Homo sapiens), sequence (P08648 42-894 limits assumed): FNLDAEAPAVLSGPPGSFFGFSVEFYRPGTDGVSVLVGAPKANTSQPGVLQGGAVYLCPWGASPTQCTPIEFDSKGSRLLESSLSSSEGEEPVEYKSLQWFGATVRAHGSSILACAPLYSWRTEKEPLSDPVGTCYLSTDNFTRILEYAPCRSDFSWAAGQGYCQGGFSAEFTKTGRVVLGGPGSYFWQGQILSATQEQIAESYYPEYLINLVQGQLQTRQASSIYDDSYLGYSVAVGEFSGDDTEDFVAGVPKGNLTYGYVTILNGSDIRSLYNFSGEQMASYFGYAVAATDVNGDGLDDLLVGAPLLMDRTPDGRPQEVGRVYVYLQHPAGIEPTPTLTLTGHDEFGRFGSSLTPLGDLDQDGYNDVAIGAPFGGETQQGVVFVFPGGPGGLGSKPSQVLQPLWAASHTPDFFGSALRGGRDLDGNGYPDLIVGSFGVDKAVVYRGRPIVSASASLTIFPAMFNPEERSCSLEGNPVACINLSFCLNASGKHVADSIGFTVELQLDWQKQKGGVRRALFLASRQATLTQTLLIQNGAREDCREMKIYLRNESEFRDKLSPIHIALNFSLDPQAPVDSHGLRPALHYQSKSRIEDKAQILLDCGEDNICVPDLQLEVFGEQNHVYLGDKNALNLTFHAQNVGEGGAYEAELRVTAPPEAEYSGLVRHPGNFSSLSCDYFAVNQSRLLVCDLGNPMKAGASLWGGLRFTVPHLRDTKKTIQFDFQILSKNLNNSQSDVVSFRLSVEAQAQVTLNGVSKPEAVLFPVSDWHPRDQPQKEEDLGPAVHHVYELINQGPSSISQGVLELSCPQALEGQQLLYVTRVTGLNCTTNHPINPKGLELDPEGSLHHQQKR
Integrin alpha-5 (Homo sapiens), sequence (P08648 895-1049 limits assumed): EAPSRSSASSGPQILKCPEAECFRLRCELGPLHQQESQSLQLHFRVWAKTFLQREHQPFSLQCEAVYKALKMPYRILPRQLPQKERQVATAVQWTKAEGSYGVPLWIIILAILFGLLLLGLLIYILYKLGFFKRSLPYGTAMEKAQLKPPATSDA

CC(C)C[C@@H]1NC(=O)CNC(=O)[C@@H](CC(=O)O)NC(=O)[C@@H](N)CSSC[C@@H](C(N)=O)NC(=O)[C@H](CC(N)=O)NC(=O)[C@@H]2C[C@@H](O)CN2C(=O)CNC1=O
inactive: all assays above
